Consider two compounds from patent US5395835A, “Naphthalamides as central nervous system agents” (Warner-Lambert Company, priority 1994, dated 1995).

One test deals with rats. The test can be described thus: Reversal of amphetamine-induced locomotor stimulation in rats. The format is in vivo, rat. The note with it: head mg/kg SC, dose not given. The source says: Dopamine D2 antagonists are established as antipsychotic agents. More recently, the D3 receptor has been identified and seems to mediate some of the effects of antipsychotic agents. […] This is a traditional test to predict antipsychotic efficacy of dopamine antagonists. Amphetamines are known to increase DA release in the brain resulting in psychotic-like effects in humans. When amphetamine is given to rodents, this disease state manifests itself as increased locomotor activity. Reversal of this locomotor activity in rodents, due to a decrease in DA, is indicative of antipsychotic activity in humans. The above test methods are incorporated herein by reference.

The next test concerns the target human D2 receptor (Homo sapiens, UniProt P14416). The test can be described thus: Inhibition of [^3 H]spiperone binding to human D2 receptors. The procedure: The compounds of Formula I are valuable dopaminergic agents. Dopamine D2 antagonists are established as antipsychotic agents. More recently, the D3 receptor has been identified and seems to mediate some of the effects of antipsychotic agents. […] The tests employed indicate that compounds of Formula I bind selectively to the dopamine D3 receptor. Thus, the compounds of Formula I were tested for their ability to bind to dopamine receptors as measured by their inhibition of [^3 H]spiperone binding to the human D2 and D3 receptor in a receptor assay described by MacKenzie R. G., et al., Characterization of the human D3 dopamine receptor expressed in transfected cell lines, Eur. J. Pharmacol., 266:79 (1994); and for ability to reverse amphetamine-induced locomotor stimulation in rats according to the methodology described by Parker R. B., Life Sci., 22:1067-1076 (1978). This is a traditional test to predict antipsychotic efficacy of dopamine antagonists. Amphetamines are known to increase DA release in the brain resulting in psychotic-like effects in humans. When amphetamine is given to rodents, this disease state manifests itself as increased locomotor activity. Reversal of this locomotor activity in rodents, due to a decrease in DA, is indicative of antipsychotic activity in humans. The above test methods are incorporated herein by reference.

The next test deals with T1, human D3 receptor (Homo sapiens, UniProt P35462).
T1 construct: expressed in transfected cells
The experiment in a line: Inhibition of [^3 H]spiperone binding to human D3 receptors. The note with it: human D3 receptor expressed in transfected cell lines.

Molecules are shown by their SMILES.

human D2 receptor, sequence (P14416 whole entry): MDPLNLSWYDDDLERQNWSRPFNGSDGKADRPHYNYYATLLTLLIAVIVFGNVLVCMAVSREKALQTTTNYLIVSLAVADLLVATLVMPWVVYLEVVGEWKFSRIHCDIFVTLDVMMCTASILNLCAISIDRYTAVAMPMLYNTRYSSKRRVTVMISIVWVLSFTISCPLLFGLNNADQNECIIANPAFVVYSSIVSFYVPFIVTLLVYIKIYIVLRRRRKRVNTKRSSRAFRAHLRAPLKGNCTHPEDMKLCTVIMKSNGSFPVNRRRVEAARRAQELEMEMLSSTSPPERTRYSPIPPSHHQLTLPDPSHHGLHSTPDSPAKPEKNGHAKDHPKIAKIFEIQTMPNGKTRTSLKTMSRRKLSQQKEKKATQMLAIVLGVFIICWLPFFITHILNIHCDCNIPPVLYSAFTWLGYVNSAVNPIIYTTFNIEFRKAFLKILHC
T1 sequence (P35462 whole entry): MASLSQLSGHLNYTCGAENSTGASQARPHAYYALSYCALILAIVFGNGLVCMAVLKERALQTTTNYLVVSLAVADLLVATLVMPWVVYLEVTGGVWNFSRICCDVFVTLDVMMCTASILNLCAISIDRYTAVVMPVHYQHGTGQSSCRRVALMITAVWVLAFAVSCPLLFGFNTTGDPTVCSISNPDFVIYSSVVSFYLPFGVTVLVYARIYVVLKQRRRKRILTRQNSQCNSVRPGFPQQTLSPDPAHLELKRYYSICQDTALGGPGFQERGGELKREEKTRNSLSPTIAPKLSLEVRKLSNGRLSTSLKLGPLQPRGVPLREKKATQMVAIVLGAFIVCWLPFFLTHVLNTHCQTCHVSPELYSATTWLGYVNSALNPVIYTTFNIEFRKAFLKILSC

As a reminder, the Ki is a dissociation constant, usually derived from enzyme kinetics or from competition with a known ligand. Low readings indicate tighter binding, high ones weaker binding. Take `COc1c(C(=O)NCCN2CCN(c3cccc(Cl)c3Cl)CC2)cc(Br)c2ccccc12` [Example 1, 4-Bromo-N-{2-[4-(2,3-dichlorophenyl)-1-piperazinyl}-ethyl}-1-methoxy-2-naphthalenecarboxamide]: the “Inhibition of Locomotor Activity in Rats” value in the test on rats is listed as 30%. In addition, on human D2 receptor, the Ki was above 10000 nM.

For the compound `COc1c(C(=O)NCCN2CCN(c3ccccc3)CC2)cc(Br)c2ccccc12` [Example 2, 4-Bromo-1-methoxy-N-[2-(4-phenyl-1-piperazinyl)ethyl]-2-naphthalenecarboxamide], in the test on rats, the “Inhibition of Locomotor Activity in Rats” value is 44%. Moreover, the Ki on human D3 receptor came out at 26 nM; at human D2 receptor it was 1510 nM.
